Source: paper PMC5224880, “Discovery and Molecular Basis of a Diverse Set of Polycomb Repressive Complex 2 Inhibitors Recognition by EED” (PLoS ONE, 2017)

How the values were obtained:
SETD6 = target: T1, SETD6 (Homo sapiens, UniProt Q8TBK2); test: HMT panel selectivity: SETD6; assay type: biochemical
T1 sequence (Q8TBK2 1-473): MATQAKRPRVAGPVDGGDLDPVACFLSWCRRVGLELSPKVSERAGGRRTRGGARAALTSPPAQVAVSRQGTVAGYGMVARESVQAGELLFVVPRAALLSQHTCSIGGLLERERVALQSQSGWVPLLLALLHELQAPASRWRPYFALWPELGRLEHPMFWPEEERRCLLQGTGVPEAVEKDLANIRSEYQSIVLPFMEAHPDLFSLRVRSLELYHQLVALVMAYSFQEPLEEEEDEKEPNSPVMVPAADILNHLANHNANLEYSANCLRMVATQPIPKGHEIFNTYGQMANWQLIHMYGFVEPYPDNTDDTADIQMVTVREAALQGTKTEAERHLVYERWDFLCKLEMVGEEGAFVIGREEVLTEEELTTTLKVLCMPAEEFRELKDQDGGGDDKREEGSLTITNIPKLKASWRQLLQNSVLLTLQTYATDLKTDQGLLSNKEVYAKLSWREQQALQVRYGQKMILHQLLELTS
Procedure: (§1) Note: for EZH2, EZH2/EED/SUZ12/RBAP48/AEBP2 was used in the assay; for EZH1, EZH1/EED/SUZ12/RBAP48/AEBP2 was used in the assay; for MLL, MLL/WDR5/RBBP5/ASH2L/ was use in the assay. a, H3K27me0 peptide was used as substrate for both EZH2 and EZH1 activity; b, H3K27me1 peptide was used as substrate for both EZH2 and EZH1 activity. All HMT reactions were performed as described previously. ref: Proc Natl Acad Sci U S A. 2012 Dec 26;109(52):21360-5.

PRMT1 = PRMT1 (Homo sapiens, UniProt Q99873); test: HMT panel selectivity: PRMT1; assay type: biochemical
Procedure: as §1

His-EED (residues 1–441) = target: T2, His-EED (residues 1–441) (Homo sapiens, UniProt O75530); test: biochemical; settings: 30 nM His-EED, 15 nM biotin-H3K27me3 (19–33) peptide; read-out: IC50, EED-H3K27me3 AlphaScreen competition binding assay
T2 construct: 30 nM His-EED (residues 1–441) protein
Procedure: The data were then fit to a dose response equation using the program Helios (Novartis) to determine the IC50 values.
Each compound was counterscreened to determine if it interfered with the AlphaScreen beads. Compounds were diluted as described in the preceding section, and the assay was performed by adding 12 μL of 10 nM Biotin-miniPEG-His6 peptide in the above buffer and incubated for 20 min at room temperature prior to addition of the acceptor and donor beads. The plates were then incubated for 1 h at room temperature in the dark before being read on the EnVision system (Perkin Elmer).
In addition to the enzymatic assay, we also developed a binding assay to measure the interaction between His-tagged recombinant EED protein and a biotinylated H3K27me3 peptide using the Amplified Luminescence Proximity Homogenous Assay Screen (AlphaScreen) [33, 34]. Binding of Biotin-H3K27me3 peptide to His-EED protein brings the streptavidin-coated donor beads and anti-His antibody coated acceptor beads into close proximity and thus a luminescent signal is produced. Disruption of EED-H3K27me3 interaction by H3K27me3 pocket binders will result in the signal reduction.

recombinant EED = recombinant EED (Homo sapiens, UniProt O75530); test: ITC binding analysis; settings: 25°C
Procedure: ITC experiments were performed on an Auto ITC200 (Microcal) at 25°C. The ITC sample cell was filled with 10 μM PRC2 in titration buffer containing 25 mM HEPES pH8.0, 150 mM NaCl, and 1% DMSO. 40 μL of 100 μM compounds in the same titration buffer was loaded in the ITC syringe. 19 injections, each of 2 μL, was injected into the ITC cell at 150 s intervals. Binding constant (K) and binding enthalpy (ΔH) determinations were obtained from the fit to the experimental data using a one-site model.
Both isothermal calorimetry (ITC) and surface plasmon resonance (SPR) assay were established for this purpose.

recombinant EED, sequence (O75530 76-441 limits assumed): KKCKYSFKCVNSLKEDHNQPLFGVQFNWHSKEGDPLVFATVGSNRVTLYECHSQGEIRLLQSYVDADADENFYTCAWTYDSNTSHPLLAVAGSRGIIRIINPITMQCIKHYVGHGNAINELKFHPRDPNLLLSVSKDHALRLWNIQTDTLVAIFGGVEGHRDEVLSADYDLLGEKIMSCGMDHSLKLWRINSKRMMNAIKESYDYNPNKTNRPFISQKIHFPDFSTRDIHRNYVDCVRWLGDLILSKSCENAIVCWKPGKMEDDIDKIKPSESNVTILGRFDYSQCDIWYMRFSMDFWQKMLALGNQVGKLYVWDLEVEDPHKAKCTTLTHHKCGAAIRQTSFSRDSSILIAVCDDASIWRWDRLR
PRMT1, sequence (Q99873 whole entry, species assumed): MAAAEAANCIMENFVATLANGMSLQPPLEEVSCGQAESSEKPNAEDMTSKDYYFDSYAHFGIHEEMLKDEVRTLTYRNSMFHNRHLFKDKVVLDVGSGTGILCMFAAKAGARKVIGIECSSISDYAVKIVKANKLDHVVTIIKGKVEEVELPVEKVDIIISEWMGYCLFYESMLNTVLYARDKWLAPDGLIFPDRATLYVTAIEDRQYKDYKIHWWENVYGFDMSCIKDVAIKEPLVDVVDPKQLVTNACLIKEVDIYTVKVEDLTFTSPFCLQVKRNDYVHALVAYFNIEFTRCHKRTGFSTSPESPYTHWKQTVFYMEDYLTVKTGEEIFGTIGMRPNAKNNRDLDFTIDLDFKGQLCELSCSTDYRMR
T2 sequence (O75530 whole entry, the tested form may be a part): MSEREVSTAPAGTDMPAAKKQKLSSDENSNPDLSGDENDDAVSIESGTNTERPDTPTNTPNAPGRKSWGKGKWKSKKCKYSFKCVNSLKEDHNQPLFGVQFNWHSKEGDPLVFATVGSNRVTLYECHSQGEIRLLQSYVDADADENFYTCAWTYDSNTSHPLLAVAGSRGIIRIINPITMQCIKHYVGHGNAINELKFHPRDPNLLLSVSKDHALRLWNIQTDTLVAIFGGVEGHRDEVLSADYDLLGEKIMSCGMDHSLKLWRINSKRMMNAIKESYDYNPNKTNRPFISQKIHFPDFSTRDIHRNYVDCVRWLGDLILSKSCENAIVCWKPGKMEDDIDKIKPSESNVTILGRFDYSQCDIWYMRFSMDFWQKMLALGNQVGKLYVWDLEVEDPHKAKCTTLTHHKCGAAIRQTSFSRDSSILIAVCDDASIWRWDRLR

Structure (SMILES) | IC50 (SETD6) | IC50 (PRMT1) | IC50 (His-EED (residues 1–441)) | enthalpy change (ITC) (recombinant EED) | entropy change (ITC) (recombinant EED) | stoichiometry of binding N (ITC) (recombinant EED)
COc1cc(-c2cc3n(c(=N)c2C#N)CCc2cc4c(cc2-3)OCO4)ccc1OC(C)C [EED396] | > 100 µM | > 100 µM |  |  |  | 
N#Cc1c2c(c3nncn3c1NCc1ccco1)CN(Cc1ccccc1)CC2 [EED162] | > 100 µM | > 100 µM | 0.32 µM |  |  | 
COc1cccc(CC2CC3Cc4c(cccc4OC)CC3N(C)C2)c1 (centres unmarked) [EED210] | > 100 µM | > 100 µM |  | -20.14 ± 5.29 kcal/mol | -46.5 cal/mol/deg | 0.78

More lines, main results first:

IC50 (SETD6) | IC50 (PRMT1) | Structure (SMILES) | IC50 (His-EED (residues 1–441)) | enthalpy change (ITC) (recombinant EED) | entropy change (ITC) (recombinant EED) | stoichiometry of binding N (ITC) (recombinant EED)
> 100 µM | > 100 µM | Cc1cc(C)n(-c2cc(N3CCc4ccccc4C3)ccc2[N+](=O)[O-])n1 [EED666] |  |  |  | 
> 100 µM | > 100 µM | COc1ccccc1CN1CC(c2cn(C)c3ccccc23)C(N(C)C)C1 (centres unmarked) [EED709] |  |  |  | 
